≈ marks a conversion by molar mass, not a printed value. Read-outs that look alike come from different tables or passages of the source.
Key:
UM-UC-3 tumors = type: in vivo, mice; conditions: mg/kg/day: PM00104 0.90 IV, cisplatin 5 IP, gemcitabine 180 IP, paclitaxel 15 IP
Method: Female athymic nude mice (Harlan Sprague Dawley, Madison, Wis.) were utilized for all experiments. Animals were housed in ventilated rack caging with food and water ad libitum. The mice were acclimated for at least 5 days prior to tumor implantation with a tumor cell suspension.
The tumor model used in these studies was UM-UC-3 cell line, which was obtained from the ATCC (Manassas, Va.).
UM-UC-3 cells were grown in minimum essential medium (Eagle's) supplemented with 10% FBS, 1.5 g/L sodium bicarbonate, 0.1 mM non-essential amino acids, 1 mM sodium pyruvate, and 2 mM L-glutamine. Each animal was implanted SC on the right flank, using a trochar and 1 cc syringe, with 5×10^6 UM-UC-3 cells, from in vitro passage 17, in a 0.2 mL suspension of 50% Matrigel and 50% serum free medium, without antibiotics. Bacterial cultures were performed on aliquots of the cells prepared for implantation.
Treatments were initiated on DPI 15.
Tumor size measurements were recorded twice weekly from the treatment initiation until the termination of the study.
Mean, standard deviation and standard error of the mean were determined for tumor volume for all animal groups at all assessments. Student's t test was performed on tumor volumes at each measurement day, including at the end of the study, to determine whether there were any statistically significant differences between combination treatment groups and single monotherapy treatment groups.

[1] = tested on: A-549 (lung cancer) cell line; assay: IC50 determination, MIT (tetrazolium) assay, 72 h (Example 18); type: cell-based, human
Method: (§1) Before plating, cell cultures were trypsinized and cell number estimated using an automated flow cytometer.
(§2) Cells were harvested and seeded in 96 well microtiter plates at the appropriate cell density (5,000-10,000 cells) in 150 μL of media and incubated for 24 hours to allow the cells to attach before drug addition.
(§3) After the incubation period (72 hours), 50 μL of MIT solution was added to each microtiter well and incubated for further 8 hours at 37° C. The culture medium was then removed and 50 μl, of DMSO were added to dissolve the MIT crystals. Optical densities were read at 540 nm on spectrophotometer microplate reader.
(§4) IC50 values were calculated from an average of two to four assays for each of the test agents.

[2] = tested on: NCI-H460 (lung cancer) cell line; assay: as above; type: cell-based, human; conditions: NCI-H460, 72 hours of drug exposure
Method: as §1, §2, §3, §4

[3] = tested on: NCI-H23 (lung cancer) cell line; assay: as above; type: cell-based, human; conditions: NCI-H23, 72 hours of drug exposure
Method: NCI-H23 cells were grown in RPMI supplemented with 10% Fetal Bovine Serum (FBS), 1% penicillin/streptomycin and 2 mM L-glutamine.
as §1, §2, §3, §4

[4] = tested on: MCF-7 (breast cancer) cell line; assay: as above; type: cell-based; conditions: Homo sapiens, MCF7; MCF-7, 72 hours of drug exposure
Method: as §1, §2, §3, §4

[5] = tested on: MDA-MB-231 (breast cancer) cell line; assay: as above; type: cell-based; conditions: Homo sapiens; MDA-MB-231, 72 hours of drug exposure
Method: as §1, §2, §3, §4

[6] = tested on: Hs746T human gastric carcinoma cell line; assay: IC50 determination, MTS assay, 72 h (Example 1); type: cell-based; conditions: 72 hours of drug exposure
How it was run: (§5)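 Cells are seeded at 10,000 per well and allowed to attach for 24 h, then exposed to compound for 72 h. Viability is read by MTS/PMS, 4 h at 37 °C, with OD at 490 nm, and referenced to a time-0 plate. IC50 is averaged from two to four assays.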

[7] = tested on: HGC-27 human gastric carcinoma cell line; assay: IC50 determination, MTS assay, 72 h (Example 1); type: cell-based; conditions: 72 hours of drug exposure
How it was run: as §5

[8] = tested on: AGS human gastric carcinoma cell line; assay: IC50 determination, MTS assay, 72 h (Example 1); type: cell-based; conditions: 72 hours of drug exposure
How it was run: as §5

Structure (SMILES)	% Inhibition (UM-UC-3 tumors; day 15)	% T/C on day (UM-UC-3 tumors; day 15)	% Inhibition (UM-UC-3 tumors; day 20)	% T/C on day (UM-UC-3 tumors; day 20)	% Inhibition (UM-UC-3 tumors; day 22)	% T/C on day (UM-UC-3 tumors; day 22)	% Inhibition (UM-UC-3 tumors; day 26)	% Inhibition (UM-UC-3 tumors; day 29)	% Inhibition (UM-UC-3 tumors; day 34)	% Inhibition (UM-UC-3 tumors; day 40)	% T/C on day (UM-UC-3 tumors; day 40)	% Inhibition (UM-UC-3 tumors; day 43)	% T/C on day (UM-UC-3 tumors; day 43)	IC50 ([1]; Homo sapiens, A549, 72 h)	IC50 ([2]; Homo sapiens)	IC50 ([3]; Homo sapiens)	IC50 [4]	IC50 [5]	% T/C on day (UM-UC-3 tumors; day 26)	% T/C on day (UM-UC-3 tumors; day 29)	other results
CC(=O)O[C@H]1C(=O)[C@@]2(C)[C@H]([C@H](OC(=O)c3ccccc3)[C@]3(O)C[C@H](OC(=O)[C@H](O)[C@@H](NC(=O)c4ccccc4)c4ccccc4)C(C)=C1C3(C)C)[C@]1(OC(C)=O)CO[C@@H]1C[C@@H]2O [paclitaxel]	1.3%	98.7%	46.9%	53.1%	54.0%	46.0%	61.4%	64.6%	60.5%	47.5%	52.5%	41.0%	59.0%	47 nM	12 nM	47 nM	70 nM	6 nM	–	–	–
COc1c(C)cc2c(c1O)[C@@H]1[C@@H]3Cc4c(OC(C)=O)c(C)c5c(c4[C@H](CNC(=O)/C=C/c4cccc(C(F)(F)F)c4)N3[C@@H](O)[C@H](C2)N1C)OCO5 [PM00104]	−0.8%	100.8%	52.8%	47.2%	52.2%	47.8%	60.2%	47.4%	50.7%	37.1%	62.9%	35.1%	64.9%	7.2 nM	7.2 nM	5 nM	1 nM	6 nM	39.8%	50.4%	% T/C on day (UM-UC-3 tumors; day 34): 49.3%; IC50 ([6]; Homo sapiens, read-out: IC50): 0.00534 µg/mL (≈ 0.00752 µM); IC50 ([7]; Homo sapiens, read-out: IC50): 0.00371 µg/mL (≈ 0.00523 µM); IC50 ([8]; Homo sapiens, read-out: IC50): 0.00521 µg/mL (≈ 0.00734 µM)
N.N.[Cl][Pt][Cl] [Cisplatin, cisplatin]	−2.2%	102.2%	23.0%	77.0%	24.2%	75.8%	38.2%	34.0%	55.3%	36.2%	63.8%	33.0%	67.0%	–	–	–	–	–	61.8%	66.0%	% T/C on day (UM-UC-3 tumors; day 34): 44.7%; IC50 [6]: 39.2 µg/mL; IC50 [7]: 25.6 µg/mL; IC50 [8]: 25.5 µg/mL; IC50 ([1]; A-549, 72 hours of drug exposure): 50000 nM; IC50 [2]: 25000 nM; IC50 [3]: 10000 nM
O=c1[nH]cc(F)c(=O)[nH]1 [5-FU, 5-fluorouracil]	–	–	–	–	–	–	–	–	–	–	–	–	–	–	–	–	–	–	–	–	IC50 ([6]; Homo sapiens, read-out: IC50): 5.46 µg/mL (≈ 42 µM); IC50 ([7]; Homo sapiens, read-out: IC50): 0.434 µg/mL (≈ 3.34 µM); IC50 ([8]; Homo sapiens, read-out: IC50): 0.532 µg/mL (≈ 4.09 µM)
Nc1ccn([C@@H]2O[C@H](CO)[C@@H](O)C2(F)F)c(=O)n1 [Gemcitabine, gemcitabine]	–	–	–	–	–	–	–	–	–	–	–	–	–	0.5 nM	1 nM	0.28 nM	1.3 nM	24 nM	–	–	–
